Consider two compounds from ChEMBL document CHEMBL1135238, “Antibody-catalyzed cleavage of the D-Ala-D-Lac depsipeptide: an immunological approach to the problem of vancomycin resistance” (Bioorg Med Chem Lett, 2002).

Square brackets hold non-standard residues; d marks the D form. Peptide text beside a SMILES is read from it.

Assay [1] can be described thus: inhibitory activity of compound using pentapeptide cell-wall peptidoglycan (PG) substrates.
Assay [2] is described as follows: Kcat value was determined.
Assay [3] is described as follows: Km value was determined.
Assay [4] in a line: Ratio of Kcat to Km was determined.
Assay [5] in a line: Ratio of Kcat to Kuncat was determined.

With `CC(=O)NCCCC[C@H](NC(=O)CCNC(=O)CCCC(=O)ON1C(=O)CCC1=O)C(=O)N[C@H](C)P(=O)(O)O[C@H](C)C(=O)O`, in assay [1], the Ki – broadly, the equilibrium dissociation constant of an inhibitor or competing ligand from its target – was under 0.16 mM. For the same compound, in assay [2], the k cat amounted to 0.12 h⁻¹. For the same compound, the Km – broadly, the substrate concentration at which the rate is half of its maximum – in assay [3] was 2170 µM. In addition, the values for the Ratio in assay [4] and in assay [5] were 0.921 and 530, respectively.
`CC(=O)NCCCC[C@H](NC(C)=O)C(=O)N[C@H](C)C(=O)N[C@H](C)C(=O)O` (Ac-Lys(Ac)-[dA]-[dA]-OH): the affinity in assay [1], expressed as Ki, was 13 mM.
